# According to PMC6706930, “A novel oral micellar fenretinide formulation with enhanced bioavailability and antitumour activity against multiple tumours from cancer stem cells” (Journal of Experimental & Clinical Cancer Research : CR, 2019):
# Test: Fecal excretion of 4-HPR and metabolites
# Type: in vivo, mice
# Parameters: Fecal excretion, amount: unit not given here
# Description: The oral pharmacokinetics of Bio-nFeR were investigated in four independent groups of 24 mice, randomized to receive different treatment with the following fenretinide equivalent doses: 10, 50, 100 and 200 mg/Kg. The drug was administered by oral gavage and after treatment, blood samples were taken at 15 and 30 min and at 1, 2, 4, 8/10, 24 and 48 h and collected in heparinized tubes from the retro-orbital plexus of the mice under isoflurane anesthesia. Mice were then sacrificed by cervical dislocation and liver, kidney and brain were removed and immediately frozen in dry-ice for future determination. To obtain plasma, blood was centrifuged at 4000 rpm for 10 min at 4 °C. To evaluate fenretinide and metabolites excretion, urine and faeces were collected over a 0–24 h and 24–48 h periods. The collection was performed in three mice per group of treatment, individually housed into metabolic cages for urine and faeces collection. All the biological samples were stored at − 20 °C until analysis. To compare the absorption of Bio-nFeR to NCI-FeR and to study the bioavailability, another independent groups of 24 mice were randomized to receive an oral dose of 200 mg/Kg of NCI-FeR. Blood samples were taken at the time reported above. Twenty-four hours fractions of urine and faeces were collected in three mice per group of treatment. Plasma and the other biological specimens were stored at − 20 °C until analysis. Chronic study: the oral pharmacokinetic of Bio-nFeR in comparison with NCI-FeR were also investigated after chronic administrations. Mice were divided in three independent groups, randomized to receive a single treatment of 150 mg/Kg or different repeated treatments of 150 mg/Kg, daily for 2 weeks (12 days on and 2 days off), or 100 mg/Kg bi-daily for 1 week (5 days on 2 days off). Bio-nFeR and NCI-FeR were administered by oral gavage, collecting blood samples at 0.5, 1, 2, 4, 8/10 and 24 h, the day of the single treatment and at 0, 1, 2, 4, 8/10, 24 and 48 h after the last dose of both the chronic treatments. The procedures of blood collection, plasma preparation, sacrifice of mice and storing of samples were as reported in acute study. Also during chronic treatment, excretions of fenretinide and metabolites in urine and faeces were determined collecting the specimens in three mice per group, both at the start of treatment and at the end of the repeated administration. All the collected samples were stored at − 20 °C until analysis.
# The determination of fenretinide in plasma of mice and the others biological samples was determined according to a method specifically developed and validated for the quantification of fenretinide (4-HPR) based on liquid chromatography-tandem mass spectrometry (LC–MS/MS) (manuscript in preparation). The procedure of sample preparation and quantification can be summarized as follows. 30 μL aliquot of plasma was added with 3 ng of deuterated internal standard (^2H4 4-HPR), deproteinized by mean of 90 μL of acetonitrile and centrifuged 5 min at 13200 rpm at room temperature. The supernatant was recovered and 5 μL injected into a HPLC system (Series 200, Perkin Elmer, MA, USA). Chromatographic separation was achieved on a Gemini-C18 column (50 mm × 2.0 mm, 5 μm particle size; Phenomenex Inc., Torrance, CA, USA) at 32 °C protected with a Security Guard™ ULTRA cartridges C18. The detection obtained by Mass spectrometric detection was carried out on a triple quadrupole API 4000 mass spectrometer (Sciex, MA, USA) equipped with atmospheric pressure chemical ionization source (APCI) operating in positive ion mode monitoring the transitions 392.3 > 283.2 m/z for 4-HPR and 396.3 > 283.2 m/z for the deuterated internal standard. To assay study samples, a calibration curve of six points (range: 1.0–500.00 ng/mL) was prepared in control mouse plasma assessing the precision and the accuracy of the run analyzing at the same time a set of freshly prepared quality controls samples. […]
# [1] = 2 wks 1 daily dose 150 mg/kg Bio-nFeR
# [2] = 2 wks 1 daily dose 150 mg/kg NCI-FeR
# [3] = feces after 24 hours, acute Bio-nFeR 10 mg/kg
# [4] = feces after 24 hours, acute Bio-nFeR 50 mg/kg
# [5] = feces after 24 hours, acute Bio-nFeR 100 mg/kg
# [6] = feces after 24 hours, acute Bio-nFeR 200 mg/kg
# [7] = feces after 24 hours, acute NCI-FeR 200 mg/kg
# [8] = single admin. 150 mg/kg Bio-nFeR
# [9] = single admin. 150 mg/kg NCI-FeR
"Fecal excretion, amount [1]","Fecal excretion, percent (in brackets) [1] [%]","Fecal excretion, amount [2]","Fecal excretion, percent (in brackets) [2] [%]",proportion of Bio-nFeR and NCI-FeR eliminated in faeces (acute treatment at multiple doses and chronic treatment),"Fecal excretion, amount [3]","Fecal excretion, percent (in brackets) [3] [%]","Fecal excretion, amount [4]","Fecal excretion, percent (in brackets) [4] [%]","Fecal excretion, amount [5]","Fecal excretion, percent (in brackets) [5] [%]","Fecal excretion, amount [6]","Fecal excretion, percent (in brackets) [6] [%]","Fecal excretion, amount [7]","Fecal excretion, percent (in brackets) [7] [%]","Fecal excretion, amount [8]","Fecal excretion, percent (in brackets) [8] [%]","Fecal excretion, amount [9]","Fecal excretion, percent (in brackets) [9] [%]",SMILES
0.9,0.0,0.8,0.0,less than 0.1%,0.03,0.02,0.5,0.05,0.7,0.04,1.2,0.05,0.4,0.02,1.6,0.1,0.4,0.02,COc1ccc(NC(=O)\C=C(C)/C=C/C=C(C)\C=C\C2=C(C)CCCC2(C)C)cc1 [MPR]
97.4,4.2,270,7.6,–,4.7,3.2,38.2,4.0,33.6,1.9,77.4,2.5,153.4,5.5,129.5,6.1,247.1,9.2,"CC1=C(/C=C/C(C)=C/C=C/C(C)=C/C(=O)Nc2ccc(O)cc2)C(C)(C)CCC1 [4-HPR, 4-hydroxy (phenyl)retinamide, reference compound]"
97.5,4.2,201.1,6.6,–,47,32.6,253.8,26.5,85.5,4.9,129.8,4.3,115.6,3.9,108.4,5.0,103.7,4.2,CC1=C(/C=C/C(C)=C/C=C/C(C)=C/C(=O)Nc2ccc(O)cc2)C(C)(C)CCC1=O [4-oxo-4-HPR]
